Source: US12213959B2, “Use of 3-O-sulfamoyloxy-7β-methyl-d-homo-6-oxaestra-1,3,5(10),8(9)-tetraen-17a-one to treat breast cancer” (priority 2018, dated 2025)
Marks after values point to notes of the source that are not given here.

What was measured:
[1] = system: breast cancer cells MCF-7; settings: cited from earlier work
[2] = system: MCF-7 human cells culture (breast adenocarcinoma); experiment: Proliferative activity of MCF-7 cells; type: cell-based
Description: The study analysis was carried out on an passaged MCF-7 human cells culture culture (breast adenocarcinoma). Normal human dermal fibroblasts (HDF) of early passages were used as a negative control.
The cells were cultivated in Carrel vials in DMEM/F12 medium (Biolot) with 1.0% of antibiotic-free fetal bovine embryonic serum (Biolot) added in the 5% CO2 atmosphere, at 37° C.
The cells were seeded on Carrel vials at 50×10^4 cells per flask. To study the proliferative activity of the cells under conditions of sulfatase inhibition, 24 hours after seeding the culture medium […], and then these tumor cell lines were incubated for various periods of time (24 to 72 hrs). The inhibitor was dissolved in DMSO. […] To exclude the cytotoxic effect of DMSO, a control sample comprising DMSO without sulfatase inhibitor was prepared.
To exclude nonspecific detrimental effects of the compounds, normal human skin fibroblasts were used. Then the cells were detached with the versene-trypsin solution (Biolot), plated onto Carrel vials containing a fresh complete culture medium. The cells were counted when untreated control cells reached the maximum cell density per unit of surface area of a culture flask (monolayer), and their number was set as 100%. The proliferative activity of all of the studied cell cultures exposed to sulfatase inhibitors was determined in triplicate.

[3] = system: breast tumours in FBV/N female mice, transgenic for HER-2/neu; experiment: Antitumour activity on breast tumours of HER-2/neu transgenic mice; type: in vivo; settings: for Relative change of the average total volume of tumours to that of Day −1 (M): Tamoxifen-1, 4.0 mg/kg daily i.g.; for Average total volume of tumours in mice (M) / Average volume of tumors existing at the beginning of the experiment (M) / TGI (average total tumour volume) / TGI (average tumor volume): Tamoxifen-1 group; for Average total volume of tumours in mice (M) / Average volume of tumors existing at the beginning of the experiment (M): 4.0 mg/kg daily i.g.; for TGI (average total tumour volume) / TGI (average tumor volume): 4.0 mg/kg
Description: The study was carried out on female FVB mice transgenic for HER-2/neu of the conventional category, the strain being obtained from the mouse bank Charles River Laboratories (Italy).
Duration of the administration course was 27-28 days.
The control groups were given the olive oil (placebo).
The macroscopically detectable tumor nodes were measured in the animals once per week during the weighing process.

[4] = Body weight and tolerability during the antitumour study; settings: for Average body weight of mice (M): 4.0 mg/kg daily i.g.; for Body weight: Tamoxifen-2, 4 mg/kg, end of observation
Description: The study medicament was administered i.g. using a metal atraumatic gavage (with the procedure corresponds to the oral route of administration in clinical settings). […] Ex tempore solutions of the medicament for administration were prepared in olive oil (refined olive oil supplemented with unrefined extra virgin olive oil available under Global Village “Clasico” trademark, lot L:183351116, expiry date 26.04.2020, BAIEO, Spain). The administered volume was 0.1 ml per 10 g of a mouse body weight (0.2 ml of a ready-to-use formulation for a mouse of 20 g). The medicament administration was started 24 hours after the randomization. Duration of the administration course was 27-28 days.
This dose corresponds to a human daily dose of 20 mg/kg.
The evaluation criteria included the clinical observation data, animals body weights, time of death (if applicable), tumor growth over time, pathomorphological examination data (verification of a neoplasm during autopsy, assessment of toxic effects by macroscopic presentation of changes in the internal organs).
The animals body weights were recorded before the first administration of the medicaments and then twice per week using a verified high-speed electronic laboratory balance Ohaus Scout Pro (USA) with a maximum load of 2000 g and a measurement pitch of 0.1 g.

[5] = system: uterine body; experiment: Hormonal effects on the uterine body (uterine weight); type: in vivo, mice; settings: Tamoxifen-2, 4 mg/kg, end of observation
Description: The hormonal effects of the medicament on the uterine body was analyzed by comparing the uterine weight without uterine horns at the end of the observation period (Table 13).

[6] = in vivo; cited from earlier work

Q: With `C[C@H]1Oc2cc(OS(N)(=O)=O)ccc2C2=C1C1=CCC[C@H](OS(N)(=O)=O)[C@@]1(C)CC2` [3,17αβ-disulfamoyloxy-7β-methyl-D-homo-6-oxa-estra-1,3,5(10), 8,14-pentaen] as the molecule, how does the “growth of breast cancer cells MCF-7” value [1] read?
A: inhibitor of the growth

Q: For `CC/C(=C(\c1ccccc1)c1ccc(OCCN(C)C)cc1)c1ccccc1` [Tamoxifen, reference compound], which “inhibition of proliferation of MCF-7 tumour cells, compared with steroid of formula 2” value [2] is on record?
A: inhibited to the same extent

Q: And the “Relative change of the average total volume of tumours to that of Day −1 (M)” value (“Relative change … (M)” below) ([3]; Day 6)?
A: 40%

Q: What about the “Relative change … (M)” value ([3]; Day 13) of the same molecule?
A: 80** %

Q: And the “Relative change … (M)” value ([3]; Day −1)?
A: 0%

Q: And the “Average total volume of tumours in mice (M)” value ([3]; Day 6)?
A: 1 0.76 cm^3

Q: And the “Average volume of tumors existing at the beginning of the experiment (M)” value (shortened to “Average volume of tumors existing”) ([3]; Day 6)?
A: 0.26 cm^3

Q: And the “Average total volume of tumours in mice (M)” value ([3]; Day 13)?
A: 0.88 cm^3

Q: And the “Average volume of tumors existing” value ([3]; Day 13)?
A: 0.3 cm^3

Q: And the “Average volume of tumors existing” value ([3]; Day 20)?
A: 0.47 cm^3

Q: And the “Average volume of tumors existing” value ([3]; Day 27)?
A: 0.58 cm^3

Q: What about the “Average total volume of tumours in mice (M)” value ([3]; Day −1) of the same molecule?
A: 0.66 cm^3

Q: What about the “Average volume of tumors existing” value ([3]; Day −1) of the same molecule?
A: 0.23 cm^3

Q: And the “TGI (average total tumour volume)” value ([3]; vs Control-2, Day 6)?
A: −162%

Q: What about the “TGI (average tumor volume)” value ([3]; vs Control-2, Day 6) of the same molecule?
A: −100%

Q: And the “TGI (average total tumour volume)” value ([3]; vs Control-2, Day 13)?
A: −35%

Q: What about the “TGI (average tumor volume)” value ([3]; vs Control-2, Day 13) of the same molecule?
A: −7%

Q: What about the “TGI (average total tumour volume)” value ([3]; vs Control-2, Day 20) of the same molecule?
A: −39%

Q: What about the “TGI (average tumor volume)” value ([3]; vs Control-2, Day 20) of the same molecule?
A: −9%

Q: What about the “TGI (average total tumour volume)” value ([3]; vs Control-2, Day 27) of the same molecule?
A: −21%

Q: What about the “TGI (average tumor volume)” value ([3]; vs Control-2, Day 27 (end of observation)) of the same molecule?
A: 5%

Q: And the “TGI (average total tumour volume)” value ([3]; vs Control-2, Day −1)?
A: −247%

Q: And the “TGI (average tumor volume)” value ([3]; vs Control-2, Day −1)?
A: −188%

Q: And the “relative change in the total volume of tumours versus Control-3 group” value ([3]; Tamoxifen-2 group)?
A: exceeded the value across the Control-3 group

Q: And the “average volume of tumours exceeded the control group by” value ([3]; Tamoxifen-2 group, end of the experiment)?
A: 31%

Q: And the “Average body weight of mice (M)” value ([4]; Tamoxifen-1 group, Day 1)?
A: 27.7 g

Q: What about the “Average body weight of mice (M)” value ([4]; Tamoxifen-1 group, Day 6) of the same molecule?
A: 26.5 g

Q: What about the “Average body weight of mice (M)” value ([4]; Tamoxifen-1 group, Day 13) of the same molecule?
A: 27.3 g

Q: What about the “Average body weight of mice (M)” value ([4]; Tamoxifen-1 group, Day 20) of the same molecule?
A: 27.5 g

Q: What about the “Average body weight of mice (M)” value ([4]; Tamoxifen-1 group, Day 27) of the same molecule?
A: 28.2 g

Q: And the Body weight ([4]; All mice)?
A: 34.2 ± 1.4 g

Q: And the Body weight ([4]; estrous cycle phase E)?
A: 34.2 ± 1.4 g

Q: And the “Average body weight of mice (M)” value ([4]; Tamoxifen-2 group, Day 1)?
A: 31.0 g

Q: What about the “Average body weight of mice (M)” value ([4]; Tamoxifen-2 group, Day 7) of the same molecule?
A: 32.0 g

Q: And the “Average body weight of mice (M)” value ([4]; Tamoxifen-2 group, Day 14)?
A: 32.9 g

Q: What about the “Average body weight of mice (M)” value ([4]; Tamoxifen-2 group, Day 21) of the same molecule?
A: 32.8 g

Q: What about the “Average body weight of mice (M)” value ([4]; Tamoxifen-2 group, Day 28) of the same molecule?
A: 34.2 g

Q: And the Uterine weight ([5]; All mice)?
A: 28 ± 1 MI

Q: What about the Uterine weight ([5]; estrous cycle phase E) of the same molecule?
A: 28 ± 1 MI

Q: With `C[C@]12CC[C@@H]3c4ccc(OS(N)(=O)=O)cc4CC[C@H]3[C@@H]1CCC2=O` [estrone sulfamate] as the molecule, how does the uterotropic activity [6] read?
A: strong uterotropic activity
